Among the data in patent US20260274832A1, “COMPOUNDS AND THEIR USE IN TREATING CANCER” (ASTRAZENECA AB, priority 2023, published 2026) are DC50 and Dmax values, retold here.

Experiment [1] concerns the target T1, AR (AR-full length) in LNCaP cells (Homo sapiens, UniProt P10275, T878A).
T1 construct: the prostate cancer cell line LNCaP (expressing AR-full length); endogenous in cells; host or cells: LNCaP
The experiment is described as follows: LNCaP Androgen Receptor Imaging Assay (immunofluorescence of endogenous nuclear AR). As to conditions: 24 h incubation; for DC50: concentration giving 50% of maximum degradation of AR per curve fit, single experiment or average of two or more; for Dmax: LNCaP, maximum degradation observed, normalized as % of positive control (prior art AR PROTAC at 3 μM). The experiment is classed as cell-based. The method in brief: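 Endogenous nuclear AR level was imaged by immunofluorescence after 24 h compound exposure (12-point dose response, 0.3% DMSO, 37° C./5% CO2) in LNCaP cells. Data were expressed as % of a 3 μM prior-art AR PROTAC control and fitted (bell fit where a hook appeared) to give DC50 and maximum degradation Dmax.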

The target in experiment [2] is T2, AR (L702H) in LNCaP cells (Homo sapiens, UniProt P10275, L702H/T878A).
T2 construct: engineered to introduce the mutation L702H into the AR gene using CRISPR/Cas9; endogenous in cells; host or cells: LNCaP cells edited by CRISPR/Cas9 at the AR gene
T2 sequence (P10275 whole entry L702H/T878A): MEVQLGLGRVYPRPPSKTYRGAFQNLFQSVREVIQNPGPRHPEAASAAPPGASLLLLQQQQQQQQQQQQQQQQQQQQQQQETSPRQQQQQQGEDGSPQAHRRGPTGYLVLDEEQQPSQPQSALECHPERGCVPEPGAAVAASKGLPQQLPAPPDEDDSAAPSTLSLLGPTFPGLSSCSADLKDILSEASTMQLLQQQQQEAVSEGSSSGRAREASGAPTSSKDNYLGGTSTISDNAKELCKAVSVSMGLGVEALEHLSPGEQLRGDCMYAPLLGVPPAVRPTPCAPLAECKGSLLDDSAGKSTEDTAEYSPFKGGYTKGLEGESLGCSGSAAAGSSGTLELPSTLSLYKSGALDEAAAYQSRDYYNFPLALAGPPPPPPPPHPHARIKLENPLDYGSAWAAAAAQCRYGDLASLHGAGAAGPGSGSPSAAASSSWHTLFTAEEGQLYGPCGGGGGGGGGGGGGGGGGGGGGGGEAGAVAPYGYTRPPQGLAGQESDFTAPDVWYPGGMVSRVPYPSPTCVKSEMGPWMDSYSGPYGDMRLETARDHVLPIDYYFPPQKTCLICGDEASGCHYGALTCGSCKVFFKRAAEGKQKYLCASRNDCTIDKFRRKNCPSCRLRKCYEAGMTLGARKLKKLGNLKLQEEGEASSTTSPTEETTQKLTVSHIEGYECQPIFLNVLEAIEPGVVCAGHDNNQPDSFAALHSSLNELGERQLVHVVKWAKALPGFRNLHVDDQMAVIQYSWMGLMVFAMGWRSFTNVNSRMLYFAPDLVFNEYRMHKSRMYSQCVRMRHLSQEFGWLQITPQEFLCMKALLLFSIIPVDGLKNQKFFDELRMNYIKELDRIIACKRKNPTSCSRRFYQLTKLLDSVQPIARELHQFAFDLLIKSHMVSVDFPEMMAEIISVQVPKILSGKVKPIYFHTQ
T2 sequence (Q96SW2 whole entry partner): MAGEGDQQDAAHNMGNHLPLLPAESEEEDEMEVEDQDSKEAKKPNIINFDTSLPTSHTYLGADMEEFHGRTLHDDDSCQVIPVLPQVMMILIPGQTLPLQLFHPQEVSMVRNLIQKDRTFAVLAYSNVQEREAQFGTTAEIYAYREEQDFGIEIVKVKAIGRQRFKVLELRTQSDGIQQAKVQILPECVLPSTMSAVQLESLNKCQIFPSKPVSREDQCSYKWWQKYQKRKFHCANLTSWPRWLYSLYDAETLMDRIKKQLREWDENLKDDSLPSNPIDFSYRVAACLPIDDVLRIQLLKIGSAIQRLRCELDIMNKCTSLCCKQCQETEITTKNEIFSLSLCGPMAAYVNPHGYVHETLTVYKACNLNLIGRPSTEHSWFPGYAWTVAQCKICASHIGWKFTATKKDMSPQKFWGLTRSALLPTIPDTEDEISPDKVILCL
Briefly: LNCaP Androgen Receptor L702H Imaging Assay (LNCaP cells engineered by CRISPR/Cas9). The experiment is classed as cell-based. As to conditions: LNCaP cells with AR L702H mutation, 24 h incubation; for DC50: concentration giving 50% of maximum degradation of AR (L702H) per curve fit; for Dmax: LNCaP, maximum degradation observed, normalized as % of positive control. The method, boiled down:
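AR (L702H) degradation, expressed as DC50 and Dmax from curve fits normalized to a positive degrader control, was measured by high-content imaging of anti-AR immunofluorescence. The engineered LNCaP line was dosed over 12 concentrations for 24 h, 0.3% DMSO final, before PFA fixation.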

T1 sequence (P10275 whole entry T878A): as the sequence (P10275 whole entry L702H/T878A) above, with H702L counted along it
T1 sequence (Q96SW2 whole entry partner): as the sequence (Q96SW2 whole entry partner) above

The DC50 is the midpoint of the concentration-degradation curve. High values mean a less potent degrader, low ones a more potent degrader. Broadly, the Dmax is the greatest extent of degradation seen. In the case of `Cc1ccc(N2CCC(c3ccc(OCCCCN4CCN(c5cc6c(cc5F)C(=O)N(C5CCC(=O)NC5=O)C6=O)CC4)cc3)CC2)c2[nH]cc(C#N)c12` (stereo not shown) [Example 50, 7-{4-[4-(4-{4-[2-(2,6-Dioxopiperidin-3-yl)-6-fluoro-1,3-dioxo-2,3-dihydro-1H-isoindol-5-yl]piperazin-1-yl}butoxy)phenyl]piperidin-1-yl}-4-methyl-1H-indole-3-carbonitrile], in experiment [1], the DC50 was 137 nM and the Dmax is 98%. In experiment [2], the DC50 stood at 769 nM and the Dmax amounted to 94%.
For the molecule `N#Cc1c[nH]c2c(N3CCC(c4ccc(N5CCC(CN6CCN(c7cc8c(cc7F)C(=O)N(C7CCC(=O)NC7=O)C8=O)CC6)CC5)cc4)CC3)ccc(Cl)c12` (stereo not shown) [Example 51, 4-Chloro-7-(4-{4-[4-({4-[2-(2,6-dioxopiperidin-3-yl)-6-fluoro-1,3-dioxo-2,3-dihydro-1H-isoindol-5-yl]piperazin-1-yl}methyl)piperidin-1-yl]phenyl}piperidin-1-yl)-1H-indole-3-carbonitrile], in experiment [1], the DC50 came to 37 nM and the Dmax was 101%. In addition, in experiment [2], the 50% degradation concentration (DC50) turned out to be 71 nM and the Dmax was determined as 96%.
In the case of `N#Cc1c[nH]c2c(N3CCC(c4ccc(N5CCC(CN6CCN(c7cc8c(cc7F)C(=O)N(C7CCC(=O)NC7=O)C8=O)CC6)CC5)cc4)CC3)ccc(F)c12` (stereo not shown) [Example 52, 7-(4-{4-[4-({4-[2-(2,6-Dioxopiperidin-3-yl)-6-fluoro-1,3-dioxo-2,3-dihydro-1H-isoindol-5-yl]piperazin-1-yl}methyl)piperidin-1-yl]phenyl}piperidin-1-yl)-4-fluoro-1H-indole-3-carbonitrile], in experiment [1], the DC50 is 62 nM and the Dmax was 93%. Also, in experiment [2], half-maximal degradation (DC50) was put at 52 nM and the Dmax is 97%.
As for `N#Cc1c[nH]c2c(N3CCC[C@@H](c4ccc(N5CCC(CN6CCN(c7cc8c(cc7F)C(=O)N(C7CCC(=O)NC7=O)C8=O)CC6)CC5)cc4)C3)ccc(Cl)c12` (stereo partly drawn) [Example 53, 4-Chloro-7-[(3S)-3-{4-[4-({4-[2-(2,6-dioxopiperidin-3-yl)-6-fluoro-1,3-dioxo-2,3-dihydro-1H-isoindol-5-yl]piperazin-1-yl}methyl)piperidin-1-yl]phenyl}piperidin-1-yl]-1H-indole-3-carbonitrile], the DC50 in experiment [1] is 30 nM; in experiment [2] it was 78 nM. In addition, the Dmax was found to be 99% in experiment [1] and 103% in experiment [2].
Consider `N#Cc1c[nH]c2c(N3CCC[C@H](c4ccc(N5CCC(CN6CCN(c7cc8c(cc7F)C(=O)N(C7CCC(=O)NC7=O)C8=O)CC6)CC5)cc4)C3)ccc(Cl)c12` (stereo partly drawn) [Example 54, 4-Chloro-7-[(3R)-3-{4-[4-({4-[2-(2,6-dioxopiperidin-3-yl)-6-fluoro-1,3-dioxo-2,3-dihydro-1H-isoindol-5-yl]piperazin-1-yl}methyl)piperidin-1-yl]phenyl}piperidin-1-yl]-1H-indole-3-carbonitrile], for which, in experiment [1], the DC50 came out at 36 nM and the Dmax turned out to be 77%. Further, in experiment [2], the DC50 came to 52 nM and the Dmax amounted to 97%.
With `N#Cc1c[nH]c2c(N3CCC(c4ccc(N5CCC(CN6CCN(c7ccc8c(c7)C(=O)N(C7CCC(=O)NC7=O)C8=O)CC6)CC5)cc4)CC3)ccc(Cl)c12` (stereo not shown) [Example 55, 4-Chloro-7-(4-{4-[4-({4-[2-(2,6-dioxopiperidin-3-yl)-1,3-dioxo-2,3-dihydro-1H-isoindol-5-yl]piperazin-1-yl}methyl)piperidin-1-yl]phenyl}piperidin-1-yl)-1H-indole-3-carbonitrile], in experiment [1], the 50% degradation concentration (DC50) is 33 nM and the Dmax turned out to be 99%. Also, in experiment [2], half-maximal degradation (DC50) was put at 34 nM and the Dmax was 103%.
The matching figures for `Cc1ccc(N2CCC(c3ccc(OCCCCN4CCN(c5ccc6c(c5)C(=O)N(C5CCC(=O)NC5=O)C6=O)CC4)cc3)CC2)c2[nH]cc(C#N)c12` (stereo not shown) [Example 56, 7-{4-[4-(4-{4-[2-(2,6-Dioxopiperidin-3-yl)-1,3-dioxo-2,3-dihydro-1H-isoindol-5-yl]piperazin-1-yl}butoxy)phenyl]piperidin-1-yl}-4-methyl-1H-indole-3-carbonitrile]: 61 nM, 101%, 357 nM and 94%.
For `N#Cc1c[nH]c2c(N3CCC(c4ccc(OCCCCN5CCN(c6ccc7c(c6)CN(C6CCC(=O)NC6=O)C7=O)CC5)cc4)CC3)cccc12` (stereo not shown) [Example 57], the DC50 in experiment [1] was 18 nM; in experiment [2] it was 31 nM. Also, the Dmax in experiment [1] was found to be 87%; in experiment [2], 79%.
On to `N#Cc1c[nH]c2c(N3CCC(c4ccc(OCCCCN5CCC(n6ccc7c(N8CCC(=O)NC8=O)cccc76)CC5)cc4)CC3)cccc12` [Example 58, 7-{4-[4-(4-{4-[4-(2,4-Dioxo-1,3-diazinan-1-yl)-1H-indol-1-yl]piperidin-1-yl}butoxy)phenyl]piperidin-1-yl}-1H-indole-3-carbonitrile], for which the 50% degradation concentration (DC50) in experiment [1] stood at 13 nM; in experiment [2] it was 114 nM. In addition, the Dmax was found to be 96% in experiment [1] and 78% in experiment [2].
Take `N#Cc1c[nH]c2c(N3CCC(c4ccc(N5CCC(CN6CCC(n7ccc8c(N9CCC(=O)NC9=O)cccc87)CC6)CC5)cc4)CC3)cccc12` [Example 59, 7-(4-{4-[4-({4-[4-(2,4-Dioxo-1,3-diazinan-1-yl)-1H-indol-1-yl]piperidin-1-yl}methyl)piperidin-1-yl]phenyl}piperidin-1-yl)-1H-indole-3-carbonitrile]: in experiment [1], half-maximal degradation (DC50) was put at 51 nM and the Dmax came to 88%. Also, in experiment [2], the DC50 was 47 nM and the Dmax came to 95%.
With `COc1cc(N2CCN(CC3CCN(c4ccc(C5CCN(c6ccc(Cl)c7c(C#N)c[nH]c67)CC5)nc4)CC3)CC2)cc2c1C(=O)N(C1CCC(=O)NC1=O)C2` (stereo not shown) [Example 60, 4-Chloro-7-(4-{5-[4-({4-[2-(2,6-dioxopiperidin-3-yl)-7-methoxy-1-oxo-2,3-dihydro-1H-isoindol-5-yl]piperazin-1-yl}methyl)piperidin-1-yl]pyridin-2-yl}piperidin-1-yl)-1H-indole-3-carbonitrile], the DC50 in experiment [1] came out at 5 nM; in experiment [2] it was 23 nM. Besides, the figures for the Dmax in experiment [1] and in experiment [2] were 93% and 57%, respectively.
Take `COc1nc(N2CCN(CC3CCN(c4ccc(C5CCN(c6ccc(Cl)c7c(C#N)c[nH]c67)CC5)nc4)CC3)CC2)cc2c1C(=O)N(C1CCC(=O)NC1=O)C2` (stereo not shown) [Example 61, 4-Chloro-7-(4-{5-[4-({4-[2-(2,6-dioxopiperidin-3-yl)-4-methoxy-3-oxo-2,3-dihydro-1H-pyrrolo[3,4-c]pyridin-6-yl]piperazin-1-yl}methyl)piperidin-1-yl]pyridin-2-yl}piperidin-1-yl)-1H-indole-3-carbonitrile]: in experiment [1], it took 6 nM to reach half-maximal degradation (DC50) and the Dmax amounted to 94%. In experiment [2], the DC50 amounted to 25 nM and the Dmax is 65%.
Consider `N#Cc1c[nH]c2c(N3CCC(c4ccc(N5CCC(CN6CCC(n7ccc8c(N9CCC(=O)NC9=O)cccc87)CC6)CC5)cn4)CC3)ccc(Cl)c12` [Example 62, 4-Chloro-7-(4-{5-[4-({4-[4-(2,4-dioxo-1,3-diazinan-1-yl)-1H-indol-1-yl]piperidin-1-yl}methyl)piperidin-1-yl]pyridin-2-yl}piperidin-1-yl)-1H-indole-3-carbonitrile], for which the 50% degradation concentration (DC50) in experiment [1] is 7 nM; in experiment [2], 80 nM. For the same molecule, the Dmax in experiment [1] was 99%; in experiment [2], 71%.
